Among the data in ChEMBL document CHEMBL1148015, “Chipping at large, potent human T-cell leukemia virus type 1 protease inhibitors to uncover smaller, equipotent inhibitors” (Bioorg Med Chem Lett, 2007) are inhibition values, retold here.

For experiment [1], the system named is Human T-cell leukemia virus type I. Briefly: Inhibition of human recombinant HTLV1 protease at 100 uM.
Experiment [2] deals with Human immunodeficiency virus 1. In words: Inhibition of recombinant HIV1 protease at 50 nM.

Molecules are shown by their SMILES. *1 amine or outer side, *2 acyl side, *3 side chain or, on linkers, in order; H or OH if unused. Where a SMILES comes first, the peptide text is derived from it. [ ]: non-standard residue; d: D form. The star is where a group is joined. X1 = O=C([C@@H](O)[C@H](Cc1ccccc1)N[*:1])[*:2]; Thz(5,5-Me2) = CC1(C)SCN[C@@H]1C(=O)O; X2 = N[C@@H](Cc1ccccc1)[C@H](O)C(=O)*

One may read the inhibition as the share of the control response that was lost under treatment. Consider `CSCC[C@H](NC(=O)[C@@H](NC(=O)[C@H]1N(C(=O)[C@@H](O)[C@H](Cc2ccccc2)NC(=O)[C@@H](NC(=O)[C@H](CCC(N)=O)NC(=O)[C@@H]2CCCN2)C(C)C)CSC1(C)C)C(C)C)C(=O)N[C@@H](Cc1c[nH]cn1)C(=O)O` (H-PQV[X1][Thz(5,5-Me2)]VMH-OH), for which the inhibition in experiment [1] was over 99%; in experiment [2], 58%.

`CC(C)[C@H](NC(=O)[C@H](CCC(N)=O)NC(=O)[C@@H]1CCCN1)C(=O)N[C@@H](Cc1ccccc1)[C@H](O)C(=O)N1CCC[C@H]1C(N)=O` (H-PQV[X1]P-NH2): the inhibition in experiment [1] and in experiment [2] was under 30% throughout.

As for `CSCC[C@H](NC(=O)[C@@H](NC(=O)[C@@H]1CCCN1C(=O)[C@@H](O)[C@@H](N)Cc1ccccc1)C(C)C)C(=O)N[C@@H](Cc1c[nH]cn1)C(=O)O` (X2-PVMH-OH), the inhibition in experiment [1] and in experiment [2] was under 30% each time.

`CSCC[C@H](NC(=O)[C@@H](CSC)NC(=O)[C@H]1N(C(=O)[C@@H](O)[C@H](Cc2ccccc2)NC(=O)[C@@H](NC(=O)[C@H](CCC(N)=O)NC(C)=O)C(C)C)CSC1(C)C)C(N)=O`: the inhibition was under 30% in experiment [1] and 92% in experiment [2].

`CSCC[C@H](NC(=O)[C@@H](NC(=O)[C@@H]1CCCN1C(=O)[C@@H](O)[C@H](Cc1ccccc1)NC(=O)[C@H](NC(=O)[C@@H](CCC(N)=O)NC(C)=O)C(C)C)C(C)C)C(=O)N[C@@H](Cc1c[nH]cn1)C(=O)O`: the values for the inhibition in experiment [1] and in experiment [2] were 49% and under 30%, respectively.

On to `CC(C)[C@H](NC(=O)[C@@H]1CCCN1C(=O)[C@@H](O)[C@H](Cc1ccccc1)NC(=O)[C@@H](NC(=O)[C@H](CCC(N)=O)NC(=O)[C@@H]1CCCN1)C(C)C)C(N)=O` (H-PQV[X1]PV-NH2), for which the inhibition in experiment [1] and in experiment [2] was under 30% throughout.

As to `CC[C@H](C)[C@H](NC(=O)[C@H]1N(C(=O)[C@@H](O)[C@H](Cc2ccccc2)NC(=O)[C@@H](NC(=O)[C@H](CCC(N)=O)NC(C)=O)C(C)C)CSC1(C)C)C(=O)N[C@@H](CCSC)C(N)=O` (Ac-QV[X1][Thz(5,5-Me2)]IM-NH2), the inhibition in experiment [1] came to 74%; in experiment [2], 95%.

Turning to `CSCC[C@H](NC(=O)[C@@H](NC(=O)[C@H]1N(C(=O)[C@@H](O)[C@H](Cc2ccccc2)NC(=O)[C@H](CSC)NC(=O)[C@H](CCC(N)=O)NC(C)=O)CSC1(C)C)C(C)C)C(N)=O` (Ac-QC(Me)[X1][Thz(5,5-Me2)]VM-NH2), the inhibition in experiment [1] worked out at 51%; in experiment [2], 96%.

Consider `CSCC[C@H](NC(=O)[C@@H](NC(=O)[C@@H]1CCCN1C(=O)[C@@H](O)[C@H](Cc1ccccc1)NC(C)=O)C(C)C)C(=O)N[C@@H](Cc1c[nH]cn1)C(=O)O` (Ac-[X1]PVMH-OH), for which the inhibition in experiment [1] and in experiment [2] was under 30% each time.

Consider `CC[C@H](C)[C@H](NC(=O)[C@@H](NC(=O)[C@H]1N(C(=O)[C@@H](O)[C@H](Cc2ccccc2)NC(=O)[C@@H](NC(=O)[C@@H](NC(C)=O)[C@@H](C)CC)C(C)C)CSC1(C)C)C(C)C)C(N)=O` (Ac-IV[X1][Thz(5,5-Me2)]VI-NH2), for which the values for the inhibition in experiment [1] and in experiment [2] were 78% and 97%, respectively.

In the case of `CC[C@H](C)[C@H](NC(C)=O)C(=O)N[C@H](C(=O)N[C@@H](Cc1ccccc1)[C@H](O)C(=O)N1CSC(C)(C)[C@H]1C(=O)N[C@H](C(=O)N[C@@H](CCSC)C(N)=O)[C@@H](C)CC)[C@@H](C)CC` (Ac-II[X1][Thz(5,5-Me2)]IM-NH2), the results for the inhibition in experiment [1] and in experiment [2] were 94% and 98%, respectively.

Take `CC[C@H](C)[C@H](NC(C)=O)C(=O)N[C@H](C(=O)N[C@@H](Cc1ccccc1)[C@H](O)C(=O)N1CSC(C)(C)[C@H]1C(=O)N[C@H](C(=O)N[C@@H](Cc1ccccc1)C(N)=O)C(C)C)C(C)C` (Ac-IV[X1][Thz(5,5-Me2)]VF-NH2): the inhibition in experiment [1] came to 84%; in experiment [2], 98%.

In the case of `CSCC[C@H](NC(=O)[C@@H](NC(=O)[C@H]1N(C(=O)[C@@H](O)[C@H](Cc2ccccc2)NC(=O)[C@@H](NC(=O)[C@H](C)NC(C)=O)C(C)C)CSC1(C)C)C(C)C)C(N)=O` (Ac-AV[X1][Thz(5,5-Me2)]VM-NH2), the inhibition in experiment [1] worked out at 56%; in experiment [2], 96%.

On to `CSCC[C@H](NC(=O)[C@H](CC(C)C)NC(=O)[C@H]1N(C(=O)[C@@H](O)[C@H](Cc2ccccc2)NC(=O)[C@@H](NC(=O)[C@H](CCC(N)=O)NC(C)=O)C(C)C)CSC1(C)C)C(N)=O` (Ac-QV[X1][Thz(5,5-Me2)]LM-NH2), for which the inhibition in experiment [1] stood at 30%; in experiment [2], 84%.

For `CSCC[C@H](NC(=O)[C@@H](NC(=O)[C@@H]1CCCN1C(=O)[C@@H](O)[C@H](Cc1ccccc1)NC(=O)[C@@H](NC(=O)[C@H](CCC(N)=O)NC(=O)[C@@H]1CCCN1)C(C)C)C(C)C)C(=O)N[C@@H](Cc1cnc[nH]1)C(=O)O` (H-PQV[X1]PVMH-OH), the inhibition was 94% in experiment [1] and under 30% in experiment [2].

Regarding `CSCC[C@H](NC(=O)[C@@H](NC(=O)[C@H]1N(C(=O)[C@@H](O)[C@H](Cc2ccccc2)NC(=O)[C@H](CC(C)C)NC(=O)[C@H](CCC(N)=O)NC(C)=O)CSC1(C)C)C(C)C)C(N)=O` (Ac-QL[X1][Thz(5,5-Me2)]VM-NH2), the results for the inhibition in experiment [1] and in experiment [2] were 54% and 83%, respectively.

With `CSCC[C@H](NC(=O)[C@@H](NC(=O)[C@H]1N(C(=O)[C@@H](O)[C@H](Cc2ccccc2)NC(=O)[C@@H](NC(=O)[C@@H](NC(C)=O)C(C)C)C(C)C)CSC1(C)C)C(C)C)C(N)=O` (Ac-VV[X1][Thz(5,5-Me2)]VM-NH2), the results for the inhibition in experiment [1] and in experiment [2] were 77% and 95%, respectively.

As to `CC[C@H](C)[C@H](NC(C)=O)C(=O)N[C@H](C(=O)N[C@@H](Cc1ccccc1)[C@H](O)C(=O)N1CSC(C)(C)[C@H]1C(=O)N[C@H](C(=O)N[C@@H](CCSC)C(N)=O)C(C)C)C(C)C` (Ac-IV[X1][Thz(5,5-Me2)]VM-NH2), the inhibition in experiment [1] was 87%; in experiment [2] it was 98%.

For `CSCC[C@H](NC(=O)[C@@H](NC(=O)[C@@H]1CCCN1C(=O)[C@@H](O)[C@H](Cc1ccccc1)NC(=O)[C@@H](N)C(C)C)C(C)C)C(=O)N[C@@H](Cc1c[nH]cn1)C(=O)O` (H-V[X1]PVMH-OH), the inhibition in experiment [1] and in experiment [2] was under 30% each time.

As to `CC[C@H](C)[C@H](NC(C)=O)C(=O)N[C@H](C(=O)N[C@@H](Cc1ccccc1)[C@H](O)C(=O)N1CSC(C)(C)[C@H]1C(=O)N[C@H](C(=O)N[C@H](C(N)=O)C(C)C)C(C)C)C(C)C` (Ac-IV[X1][Thz(5,5-Me2)]VV-NH2), the values for the inhibition in experiment [1] and in experiment [2] were 70% and 96%, respectively.

For `CC[C@H](C)[C@H](NC(C)=O)C(=O)N[C@H](C(=O)N[C@@H](Cc1ccccc1)[C@H](O)C(=O)N1CSC(C)(C)[C@H]1C(=O)N[C@H](C(=O)N[C@@H](CC(C)C)C(N)=O)C(C)C)C(C)C` (Ac-IV[X1][Thz(5,5-Me2)]VL-NH2), the inhibition stood at 54% in experiment [1] and 95% in experiment [2].

In the case of `CSCC[C@H](NC(=O)[C@@H](NC(=O)[C@@H]1CCCN1C(=O)[C@@H](O)[C@H](Cc1ccccc1)NC(=O)[C@H](NC(=O)[C@H](N)CCC(N)=O)C(C)C)C(C)C)C(=O)N[C@@H](Cc1c[nH]cn1)C(=O)O`, the inhibition in experiment [1] and in experiment [2] was under 30% each time.

As to `CSCC[C@H](NC(=O)[C@@H](NC(=O)[C@H]1N(C(=O)[C@@H](O)[C@H](Cc2ccccc2)NC(=O)[C@@H](NC(=O)[C@H](Cc2ccccc2)NC(C)=O)C(C)C)CSC1(C)C)C(C)C)C(N)=O` (Ac-FV[X1][Thz(5,5-Me2)]VM-NH2), the inhibition worked out at 74% in experiment [1] and 95% in experiment [2].

For `CSCC[C@H](NC(=O)[C@@H](NC(=O)[C@H]1N(C(=O)[C@@H](O)[C@H](Cc2ccccc2)NC(=O)[C@@H](NC(=O)[C@H](CCC(N)=O)NC(C)=O)C(C)C)CSC1(C)C)C(C)C)C(N)=O` (Ac-QV[X1][Thz(5,5-Me2)]VM-NH2), the figures for the inhibition in experiment [1] and in experiment [2] were 66% and 96%, respectively.

Take `CSCC[C@H](NC(=O)[C@@H](NC(=O)[C@H]1N(C(=O)[C@@H](O)[C@H](Cc2ccccc2)NC(=O)[C@@H](NC(=O)[C@H](CC(C)C)NC(C)=O)C(C)C)CSC1(C)C)C(C)C)C(N)=O` (Ac-LV[X1][Thz(5,5-Me2)]VM-NH2): the inhibition came out at 83% in experiment [1] and 99% in experiment [2].

Turning to `CC[C@H](C)[C@H](NC(=O)[C@H](CCC(N)=O)NC(C)=O)C(=O)N[C@@H](Cc1ccccc1)[C@H](O)C(=O)N1CSC(C)(C)[C@H]1C(=O)N[C@H](C(=O)N[C@@H](CCSC)C(N)=O)C(C)C` (Ac-QI[X1][Thz(5,5-Me2)]VM-NH2), the inhibition in experiment [1] was found to be 85%; in experiment [2], 95%.

`CSCC[C@H](NC(=O)[C@@H](NC(=O)[C@@H]1CCCN1C(=O)[C@@H](O)[C@H](Cc1ccccc1)NC(=O)[C@@H](NC(C)=O)C(C)C)C(C)C)C(=O)N[C@@H](Cc1c[nH]cn1)C(=O)O` (Ac-V[X1]PVMH-OH): the inhibition in experiment [1] and in experiment [2] was under 30% each time.

As to `CSCC[C@H](NC(=O)[C@@H](NC(=O)[C@@H]1CCCN1C(=O)[C@@H](O)[C@H](Cc1ccccc1)NC(=O)[C@@H](NC(=O)[C@H](CCC(N)=O)NC(=O)[C@@H]1CCCN1)C(C)C)C(C)C)C(N)=O` (H-PQV[X1]PVM-NH2), the results for the inhibition in experiment [1] and in experiment [2] were 86% and under 30%, respectively.

In the case of `CSCC[C@H](NC(=O)[C@@H](NC(=O)[C@H]1N(C(=O)[C@@H](O)[C@H](Cc2ccccc2)NC(=O)[C@@H](NC(=O)[C@H](CCC(N)=O)NC(C)=O)C(C)C)CSC1(C)C)[C@@H](C)O)C(N)=O` (Ac-QV[X1][Thz(5,5-Me2)]TM-NH2), the inhibition in experiment [1] was under 30%; in experiment [2] it was 78%.

With `CC[C@H](C)[C@H](NC(C)=O)C(=O)N[C@H](C(=O)N[C@@H](Cc1ccccc1)[C@H](O)C(=O)N1CSC(C)(C)[C@H]1C(=O)N[C@H](C(=O)N[C@@H](CCC(N)=O)C(N)=O)C(C)C)C(C)C` (Ac-IV[X1][Thz(5,5-Me2)]VQ-NH2), the inhibition in experiment [1] worked out at 86%; in experiment [2] it was 95%.
